Data published in PMC7748245, “Identification and Optimization of a Series of 8-Hydroxy Naphthyridines with Potent In Vitro Antileishmanial Activity: Initial SAR and Assessment of In Vivo Activity” (Journal of Medicinal Chemistry, 2020).
Where two headings read alike, the source gives them in different places.

Experiments:
[1] = assay type: in vitro ADME, mouse
Experimental: As a means of measuring glucuronidation in vitro, 16 was assessed in a mouse liver hepatocyte assay.

[2] = tested on: L. donovani amastigotes; test: Intramacrophage L. donovani assay (Ld InMac); assay type: cell-based, Leishmania donovani; details: for LdInMac pIC50 / IC50: supplement sheet; for IC50: read-out: LdInMac pIC50 (converted)
Experimental: (§1) This assay was conducted as previously described,[8] except for compound exposure time, which was 96 h instead of 72 h.

[3] = tested on: THP-1 cells; test: THP-1 host cell toxicity readout of the intramacrophage assay; assay type: cell-based, human; details: for THP-1 (pEC50) / EC50: human THP-1 host cells; for THP1 pIC50 / IC50: supplement sheet; for IC50: Homo sapiens, THP-1, read-out: THP1 pIC50 (converted); for EC50: read-out: THP-1 (pEC50) (converted)
Experimental: as §1

[4] = Kinetic aqueous solubility; assay type: physicochemical; details: for solubility kinetic: read-out: Aq Solubility (kinetic aqueous solubility); for solubility: aqueous medium (not further specified), supplement sheet
Experimental: (§2) These assays were conducted as previously described.[23]

[5] = Chrom Log D pH7.4; assay type: physicochemical; details: for ChromLogDpH7.4 / chromatographic logD: pH 7.4
Experimental: This assay was conducted as previously described.[11]

[6] = tested on: Leishmania donovani; test: VL mouse in vivo efficacy model (liver parasite burden, LDU)
Experimental: (§3) Because of having higher metabolic stability (in mouse liver microsomes) and lower Chrom Log D, compound 16 was progressed into a VL in vivo efficacy study, carried out in our previously described VL mouse model.[7] […] Parasite load was determined in the livers of animals 3 days after cessation of treatment, and parasite burden was expressed in Leishman Donovan units (LDUs, the mean number of amastigotes per liver cell × mg weight of liver). The blood exposure of compound 16 was also determined in dosed animals on days 1 and 5 to better understand the PK/pharmacodynamics (PD) relationship of the series. According to our project criteria, a compound needs to reduce parasite burden by >70% before being considered suitable for progression to lead-optimization, while a reduction of >95% would be considered suitable for a preclinical development candidate.[12]
In vivo studies were carried out as previously described.[12]

[7] = mouse, in vivo
Experimental: as §3, with “candidate.[12] In the study, miltefosine behaved as expected, reducing parasite levels by >99% at 30 mg/kg qd. After twice daily ip dosing at 50 mg/kg, compound 16 reduced parasite burden in mouse liver by 46%. This provided an early proof of concept for this series but fell short of our target of >70% parasite reduction.” for “candidate.[12]”

[8] = Mouse liver microsomal intrinsic clearance; assay type: in vitro ADME; details: for Cli (mouse liver microsomal intrinsic clearance): mouse liver microsomes; for Cli (mouse, ml/min/g): supplement sheet
Experimental: as §2

[9] = tested on: cell health (mitochondrial integrity); test: GSK eXP: phenotypic cell health assay; assay type: cell-based; details: GSK eXP panel
Text: (§4) First, the compounds which were poorly tolerated in mice, 28 and 34, were screened against a panel of >30 receptors with known links to in vivo toxicity (GSK-enhanced cross-screen panel (eXP)).[18] […] From this, it was not clear whether the effects seen in the receptor screen were related to the observed in vivo toxicity.

[10] = tested on: phospholipidosis; test: GSK eXP: phospholipidosis assay; assay type: cell-based; details: GSK eXP panel
Text: as §4

[11] = biological target: bile salt export pump (BSEP) (Homo sapiens, UniProt O95342); test: GSK eXP: bile salt export pump (BSEP) assay; assay type: biochemical; details: GSK eXP panel; read-out: pIC50 in BSEP assay (converted)
Text: as §4

[12] = Mouse PK study 50 mg/kg ip (metabolites, tolerability); assay type: in vivo
Experimental: Since 7 itself was metabolically unstable (Cli = 10 mg/mL/g), we became interested in transferring the SAR from the triazole subseries (e.g., 16) to investigate its impact on metabolic stability, with a particular focus on glucuronidation. To this end, we synthesized 26 (Table 5) as a direct analogue of triazole 16.
Figure 3 PK profile of 26, showing levels of parent, glucuronide adduct, major hydroxylated metabolite, and other minor metabolites. Data are based on two replicates, with error bars representing the range of the data from the two runs. Blood/water (30 μL, 1:2) were collected following 50 mg/kg ip administration to Balb C mice at prescribed time points; 90 μL of acetonitrile (ACN) was then added to each sample and the samples were centrifuged for 5 min at 7000 rpm; 90 μL of supernatant was removed and added to 50 μL of Milli-Q water before ultrahigh-performance liquid chromatography–quadrupole time-of-flight (UPLC Q-TOF) analysis.
We synthesized a set of benzyl amides, where 4-methoxy analogue 27 and α-methyl-4-fluoro analogue 28 both gave very encouraging profiles, meeting progression criteria in terms of potency, metabolic stability, and clearance. […] Due to its impressive in vitro potency, we selected 28 for progression into an in vivo PK study.
We noted that a related compound from Merck, L-870,810 (30),[17] was reported as a clinical candidate targeting HIV integrase, which progressed as far as phase II clinical trials. […] Also, introducing substituents into the 5-naphthyridyl position had been a successful strategy for improving metabolic stability and potency in the triazole subseries. We therefore investigated a range of 5-substituted naphthyridyl analogues (Table 5). THP-amine 31 and morpholine 32 lost potency compared to parent compound 7, so we switched attention back to 5-phenylnaphthyridines. […] Further combinations of nonaromatic amides with differently substituted 5-phenylnaphthyridines were synthesized, and while changing the phenyl substituent gave flat SAR and no advantage over previous compounds, exploration of the amide led to 34 with a trans-4-methoxycyclopropylamide. Compound 34 gave a good balance of potency, solubility, and microsomal stability and was therefore selected for a mouse PK study.

[13] = biological target: T1, monoamine oxidase A (Homo sapiens, UniProt P21397); test: GSK enhanced cross-screen panel (eXP): monoamine oxidase A; assay type: biochemical; details: read-out: pIC50 against monoamine oxidase A (converted)
T1 sequence (P21397 1-527): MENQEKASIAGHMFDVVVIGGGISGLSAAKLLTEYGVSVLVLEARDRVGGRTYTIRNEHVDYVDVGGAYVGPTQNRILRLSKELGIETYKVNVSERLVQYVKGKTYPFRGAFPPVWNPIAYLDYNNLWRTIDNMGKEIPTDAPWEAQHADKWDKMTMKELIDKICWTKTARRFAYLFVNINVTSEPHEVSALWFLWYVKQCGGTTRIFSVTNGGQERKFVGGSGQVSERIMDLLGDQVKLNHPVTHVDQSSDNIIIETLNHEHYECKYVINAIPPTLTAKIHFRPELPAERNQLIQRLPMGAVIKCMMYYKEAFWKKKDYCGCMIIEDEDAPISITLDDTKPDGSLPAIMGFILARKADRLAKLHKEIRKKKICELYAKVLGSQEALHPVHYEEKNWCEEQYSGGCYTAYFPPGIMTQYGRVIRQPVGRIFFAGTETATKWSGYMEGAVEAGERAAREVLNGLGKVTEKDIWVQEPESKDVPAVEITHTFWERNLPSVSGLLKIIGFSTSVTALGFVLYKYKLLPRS
Text: as §4

[14] = chromatographic (HPLC retention) system, supplement sheet, read-out: ChromLogD
[15] = chromatographic system (Chrom Log D), read-out: ChromLogDpH7.4

Sequence of bile salt export pump (BSEP) (O95342 whole entry, species assumed): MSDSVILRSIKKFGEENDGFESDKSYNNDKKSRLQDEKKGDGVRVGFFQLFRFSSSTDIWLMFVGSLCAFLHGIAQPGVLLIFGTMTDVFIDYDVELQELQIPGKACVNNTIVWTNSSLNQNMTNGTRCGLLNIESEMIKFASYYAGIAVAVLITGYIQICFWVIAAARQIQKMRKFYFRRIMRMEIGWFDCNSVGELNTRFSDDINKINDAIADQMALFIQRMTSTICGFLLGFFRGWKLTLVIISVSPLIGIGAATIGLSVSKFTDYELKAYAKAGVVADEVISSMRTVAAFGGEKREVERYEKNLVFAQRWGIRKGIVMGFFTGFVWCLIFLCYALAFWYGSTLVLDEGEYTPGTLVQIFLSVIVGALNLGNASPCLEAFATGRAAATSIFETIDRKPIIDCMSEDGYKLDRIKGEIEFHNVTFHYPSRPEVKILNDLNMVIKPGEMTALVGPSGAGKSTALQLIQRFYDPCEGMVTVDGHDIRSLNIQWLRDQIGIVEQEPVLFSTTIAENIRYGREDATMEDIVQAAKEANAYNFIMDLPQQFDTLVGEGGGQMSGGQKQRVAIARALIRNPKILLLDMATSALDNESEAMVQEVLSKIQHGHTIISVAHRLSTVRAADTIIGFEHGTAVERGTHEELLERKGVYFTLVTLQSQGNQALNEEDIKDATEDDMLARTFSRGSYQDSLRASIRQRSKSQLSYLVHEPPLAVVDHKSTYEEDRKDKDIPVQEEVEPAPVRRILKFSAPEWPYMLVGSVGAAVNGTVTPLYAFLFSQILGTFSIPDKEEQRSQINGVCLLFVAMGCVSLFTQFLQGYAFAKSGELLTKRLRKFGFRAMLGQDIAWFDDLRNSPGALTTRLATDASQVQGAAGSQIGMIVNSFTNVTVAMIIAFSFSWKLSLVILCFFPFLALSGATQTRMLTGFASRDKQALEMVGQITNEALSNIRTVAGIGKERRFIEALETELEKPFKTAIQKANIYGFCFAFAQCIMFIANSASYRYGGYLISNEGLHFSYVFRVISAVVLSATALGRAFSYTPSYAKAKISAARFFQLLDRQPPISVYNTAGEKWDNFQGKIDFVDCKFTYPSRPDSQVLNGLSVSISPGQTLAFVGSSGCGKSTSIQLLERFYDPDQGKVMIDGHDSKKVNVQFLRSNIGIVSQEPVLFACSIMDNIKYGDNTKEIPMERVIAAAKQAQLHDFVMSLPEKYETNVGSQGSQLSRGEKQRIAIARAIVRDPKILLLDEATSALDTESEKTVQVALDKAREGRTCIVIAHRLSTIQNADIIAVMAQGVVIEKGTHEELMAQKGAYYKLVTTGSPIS

Molecule	LdInMac pIC50 [2]	THP-1 (pEC50) [3]	THP1 pIC50 [3]	solubility kinetic [4] [µM]	ChromLogDpH7.4 [5]	ChromLogD ([5]; supplement sheet)	Cli (mouse liver microsomal intrinsic clearance) [8] [mL/min/g]	Cli (mouse, ml/min/g) [8] [mL/min/g]	IC50 ([2]; Leishmania donovani) [µM]	IC50 [3] [µM]	EC50 [3] [µM]	solubility [4] [µg/mL]	chromatographic logD [5, 14]	chromatographic logD [5, 15]	tolerability in mouse PK study ([12]; mouse)	other results
COc1ccccc1-c1nc(-c2nc(C)n[nH]2)c(O)c2ncccc12 [Compound 16, 5-(2-Methoxyphenyl)-7-(3-methyl-1H-1,2,4-triazol-5-yl)-1,6-naphthyridin-8-ol]	6.2	<4.3	<4.3	>250	3.2	3.2	0.8	0.8	–	–	–	–	–	–	–	glucuronide adduct observed in hepatocytes [1]: negligible amounts of the glucuronide adduct; clearance in mouse hepatocytes ([1]; mouse, hepatocytes): 1.4 mL/min/g; Ld InMac (pEC50) ([2]; L. donovani amastigotes in THP-1 cells, 96 h compound exposure): 6.2; reduction of parasite burden in mouse liver ([6]; 50 mg/kg ip twice daily, 5 days): 46%; VL mouse efficacy model Reduction in parasite levels % ([6]; supplement sheet): 46%; Tmax [7]: 30 min; Tmax ([7]; ip, 50 mg/kg): 30 min; glucuronidated adducts in blood samples ([7]; ip, 50 mg/kg): presence of glucuronidated adducts; time unbound blood concentration exceeds EC99 ([7]; ip, 50 mg/kg): only during the first hour post-dose
COc1ccccc1-c1nc(C(=O)N[C@H]2CC[C@H](OC)CC2)c(O)c2ncccc12 [Compound 34, 8-Hydroxy-N-(trans-4-methoxycyclohexyl)-5-(2-methoxyphenyl)-1,6-naphthyridine-7-carboxamide]	–	–	–	> 250	–	–	1.4	1.4	1	39.8	39.8	> 250	5.7	5.7	displayed the similar symptoms as with compound 28	pIC50 in phenotypic cell health assay [9]: showed potency in the cell health assay; activity in phospholipidosis assay [10]: activity; IC50 [11]: 15.8 µM; EC50 ([2]; Leishmania donovani, THP-1, 96 h, L. donovani amastigotes in THP-1 cells, 96 h compound exposure, read-out: Ld InMac (pEC50) (converted)): 1 µM; time after which study was terminated ([12]; mouse): 60 min
CNC(=O)c1nc(-c2ccccc2OC)c2cccnc2c1O [Compound 26, 8-Hydroxy-5-(2-methoxyphenyl)-N-methyl-1,6-naphthyridine-7-carboxamide]	–	–	–	–	–	–	–	–	10	39.8	–	–	–	–	–	parent remaining in blood ([12]; Balb C mice, 8 h post-dose): significant quantities of parent were still present 8 h post-dose; in vivo glucuronidation / metabolites ([12]; Balb C mice, blood): little evidence of glucuronidation
CC(NC(=O)c1ncc2cccnc2c1O)c1ccc(F)cc1 (stereo not drawn) [Compound 28, N-(1-(4-Fluorophenyl)ethyl)-8-hydroxy-1,6-naphthyridine-7-carboxamide]	–	–	–	> 250	–	–	3.7	3.7	0.158	5.01	5.01	> 250	5.1	5.1	proved to be toxic	IC50 ([9]; read-out: pIC50 in phenotypic cell health assay (converted)): 12.6 µM; IC50 [13]: 3.98 µM; time to symptoms requiring termination ([12]; mouse): ≤ 3.5 h
5-(Dimethylamino)-7-(3-methyl-1H-1,2,4-triazol-5-yl)-1,6-naphthyridin-8-ol [Compound 9]	4.8	<4.3	<4.3	>250	-0.6	-0.6	14	14	–	–	–	–	–	–	–	–
